Residues, ends and D or L forms follow the SMILES beside them. *: point of attachment. Cbz = O=C(OCc1ccccc1)*; NHPh = c1ccc(N*)cc1; OtBu = CC(C)(C)O*
Tests used:
C57BL/6 mice [1] = experiment: Thermal sensitivity (Hargreaves radiant heat) after intraplantar injection, mice without capsaicin; format: in vivo, mouse
Experimental: (§1) Experiments were performed on 6- to 12-week-old male C57BL/6 mice (The Jackson Laboratory, Bar Harbor, ME) housed in the AAALAC-accredited facility at the University of Texas Medical Branch. Mice were group-housed with up to 5 mice per cage on a 12-to-12-hour light–dark cycle and had access to water and food ad libitum. All protocols were approved by the Institutional Animal Care and Use Committee (IACUC) at the University of Texas Medical Branch and in accordance with the National Institutes of Health (NIH) guidelines.
(§2) PW164 and ZL192 were dissolved in DMSO and saline in a ratio of 1:10. 0.1% capsaicin (10% ethanol, 10% Tween-20 in saline; Sigma-Aldrich). All the compounds were injected at the center of the hind paw. The control group received a DMSO-saline mixture. […]
AAV2 viral particles packaged by the University of North Carolina Gene Therapy Core Facility (viral titer ranging […]
Before intrathecal injections in the lumbar region, mice were maintained in an anesthetizing box with 2% isoflurane to induce unconsciousness. Six microliters of viral vector were gently injected into the CSF through a 30-gauge needle with a Hamilton syringe in the lumbar area between vertebrae L4 and L5 by gently gripping the iliac crest of the mouse and inserting the needle with an angle of 45°. The correct procedure was confirmed by the mouse’s tail reflexiv e flick. […]
Assessment of thermal sensitivity
Plantar tests for thermal sensitivity were performed using the Hargreaves apparatus (Ugo Basile, Italy) in mice that were either naïve or received i.p. injection of capsaicin or test compound. A thermal stimulus, generated by an infrared-focused light source, invisible to the rodent, was applied through a glass pane, to the plantar surface of the hind paw of the animal. The response to this stimulus was considered the withdrawal of the stimulated paw (lifting and licking). Light intensity was set up at 30% and the cut-off at the 20 s. The final value of thermal withdrawal latency, expressed in seconds, was the average value of three consecutive trials. […]

C57BL/6 mice [2] = experiment: Mechanical sensitivity (von Frey, LVF/HVF) after intraplantar injection, mice without capsaicin; format: in vivo, mouse; parameters: key to LVF Mean / HVF Mean: % withdrawals from 10 consecutive von Frey stimulations; conditions: for HVF Mean / LVF Mean: without capsaicin
Experimental: as §1, §2
Assessment of mechanical sensitivity
Mechanical sensitivity was assessed using von Frey filaments (VFF 0.1g and 1.0 g force) in mice that were either naïve or received intraplantar (i.p.) injection of capsaicin. VFFs were applied at the injection site (capsaicin or drug unilateral intraderma l injection at the center of the hind paw using a 30 -G needle). VFF of 1.0 g force, which evokes a 40–60% withdrawal response in the naïve condition, was used to detect hyperalgesia, and VFF of 0.1 g […]
mechanical sensitivity was expressed as % withdrawals from 10 consecutive stimulations. […]

[3] = naive WT mice, ZL192 i.pl. 0.06 or 0.18 mg/mL

## COC(=O)[C@@H](NC(=O)[C@H](CCC(=O)OC(C)(C)C)NC(=O)[C@H](CC(C)C)NC(=O)[C@@H]1CCCN1C(=O)OCc1ccccc1)C(C)C [PW164] (Cbz-PLE(OtBu)V-OMe)
C57BL/6 mice [1]; WT mice, i.pl., radiant heat test
  thermal hindpaw withdrawal thresholds (latency), normal sensitivity: Neither did PW164 affect thermal hindpaw withdrawal thresholds
C57BL/6 mice [2]; PW164 0.07mg/mL, Time (h) 0
  HVF Mean: 50
  LVF Mean: 0
C57BL/6 mice [2]; PW164 0.07mg/mL, Time (h) 0.5
  HVF Mean: 50
  LVF Mean: 0
C57BL/6 mice [2]; PW164 0.07mg/mL, Time (h) 1
  HVF Mean: 55
  LVF Mean: 0
C57BL/6 mice [2]; PW164 0.07mg/mL, Time (h) 1.5
  HVF Mean: 50
  LVF Mean: 0
C57BL/6 mice [2]; PW164 0.07mg/mL, Time (h) 2
  HVF Mean: 50
  LVF Mean: 0
C57BL/6 mice [2]; PW164 0.21 mg/mL, Time (h) 0
  HVF Mean: 53.3333
  LVF Mean: 0
C57BL/6 mice [2]; PW164 0.21 mg/mL, Time (h) 0.5
  HVF Mean: 50
  LVF Mean: 0
C57BL/6 mice [2]; PW164 0.21 mg/mL, Time (h) 1
  HVF Mean: 50
  LVF Mean: 0
C57BL/6 mice [2]; PW164 0.21 mg/mL, Time (h) 1.5
  HVF Mean: 53.3333
  LVF Mean: 0
C57BL/6 mice [2]; PW164 0.21 mg/mL, Time (h) 2
  HVF Mean: 50
  LVF Mean: 3.333
C57BL/6 mice [2]; PW164 0.7 mg/mL, Time (h) 0
  HVF Mean: 53.3333
  LVF Mean: 0
C57BL/6 mice [2]; PW164 0.7 mg/mL, Time (h) 0.5
  HVF Mean: 50
  LVF Mean: 0
C57BL/6 mice [2]; PW164 0.7 mg/mL, Time (h) 1
  HVF Mean: 56.6667
  LVF Mean: 0
C57BL/6 mice [2]; PW164 0.7 mg/mL, Time (h) 1.5
  HVF Mean: 53.3333
  LVF Mean: 3.333
C57BL/6 mice [2]; PW164 0.7 mg/mL, Time (h) 2
  HVF Mean: 56.6667
  LVF Mean: 0
C57BL/6 mice [2]; WT mice, i.pl. 5 μL, doses tested
  paw withdrawal to LVF/HVF stimulation, normal sensitivity: did not affect paw withdrawal

## CC(=O)N[C@@H](Cc1ccccc1)C(=O)N[C@@H](CC(C)C)C(=O)N1CCC[C@H]1C(=O)N[C@@H](CCCCN)C(=O)Nc1ccccc1 [ZL192] (Ac-FLPK-NHPh)
C57BL/6 mice [1]; ZL192 0.18 mg/mL, i.pl.
  thermal hypersensitivity in AAV2-shFGF13 mice: absent
  thermal sensitivity in AAV2-shCTRL mice: caused mechanical and thermal hypersensitivity
C57BL/6 mice [1]; [3]
  thermal sensitivity: also seen
C57BL/6 mice [2]; ZL192 0.18 mg/mL, i.pl.
  mechanical hypersensitivity in AAV2-shFGF13 mice: absent
  mechanical sensitivity in AAV2-shCTRL mice: caused mechanical and thermal hypersensitivity
C57BL/6 mice [2]; [3]
  duration of increased mechanical response: up to 2 hours
C57BL/6 mice [2]; naive WT mice, ZL192 i.pl. 5 μL, 0.06 or 0.18 mg/mL, vs vehicle
  response to LVF and HVF stimulation: increased the response

Reference: PMC12259270, “Sensory neuron–expressed FGF13 controls nociceptive signaling in diabetic neuropathy models” (The Journal of Clinical Investigation, 2025)
